Assay [1] deals with Serine/threonine-protein kinase 26 (Homo sapiens, UniProt Q9P289). The experiment in a line: Selectivity interaction (Kinase panel (Z-LYTE Assay)) EUB0001632a STK26. Particulars: at 10 µM.
A further assay concerns the target Focal adhesion kinase 1 (Homo sapiens, UniProt Q05397). The experiment in a line: Selectivity interaction (Kinase panel (Z-LYTE Assay)) EUB0001632a PTK2. Particulars: at 10 µM.
Assay [2] has as its target Cyclin-dependent kinase 11B (Homo sapiens) (UniProt P21127). Nature of the assay: Selectivity interaction (KinomeScan (DiscoverX)) EUB0000595a CDK11B. Particulars: at 10 µM.
Assay [3] is described as follows: Selectivity interaction (KinomeScan (DiscoverX)) EUB0001619a CDK2H. The conditions noted are these: at 1 µM.
In assay [4] the target is T1, Serine/threonine-protein kinase D3 (Homo sapiens) (UniProt O94806).
T1 sequence (whole entry): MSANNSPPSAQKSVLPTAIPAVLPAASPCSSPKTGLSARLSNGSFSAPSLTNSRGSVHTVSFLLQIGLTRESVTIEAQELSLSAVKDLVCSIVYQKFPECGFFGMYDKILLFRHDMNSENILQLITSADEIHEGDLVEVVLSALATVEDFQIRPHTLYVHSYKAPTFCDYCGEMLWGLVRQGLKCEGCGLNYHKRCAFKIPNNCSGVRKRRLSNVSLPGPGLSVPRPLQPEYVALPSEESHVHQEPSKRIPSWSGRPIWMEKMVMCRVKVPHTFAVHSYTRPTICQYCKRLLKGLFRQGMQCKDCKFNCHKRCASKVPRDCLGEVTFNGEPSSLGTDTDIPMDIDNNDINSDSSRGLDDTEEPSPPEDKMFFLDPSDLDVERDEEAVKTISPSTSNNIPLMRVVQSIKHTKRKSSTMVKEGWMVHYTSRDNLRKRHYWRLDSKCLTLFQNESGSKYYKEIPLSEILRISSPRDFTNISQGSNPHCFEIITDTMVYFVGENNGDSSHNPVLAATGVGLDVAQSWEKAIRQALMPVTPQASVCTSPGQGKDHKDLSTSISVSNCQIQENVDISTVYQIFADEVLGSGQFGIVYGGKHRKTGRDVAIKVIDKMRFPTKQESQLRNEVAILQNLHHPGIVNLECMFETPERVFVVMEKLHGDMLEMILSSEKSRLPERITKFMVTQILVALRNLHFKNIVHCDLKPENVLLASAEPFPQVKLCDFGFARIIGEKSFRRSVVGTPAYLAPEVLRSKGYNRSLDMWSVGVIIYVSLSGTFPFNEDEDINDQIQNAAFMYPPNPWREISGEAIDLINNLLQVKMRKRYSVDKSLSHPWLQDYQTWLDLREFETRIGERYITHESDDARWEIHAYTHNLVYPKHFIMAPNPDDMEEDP
The experiment in a line: Selectivity interaction (KinomeScan (DiscoverX)) EUB0001619a PRKD3. The conditions noted are these: at 1 µM.

The target in assay [5] is 5'-AMP-activated protein kinase catalytic subunit alpha-2 (Homo sapiens) (UniProt P54646). The conditions noted are these: at 10 µM.
The target of assay [6] is Non-receptor tyrosine-protein kinase TYK2 (Homo sapiens, UniProt P29597). The experiment in a line: Selectivity interaction (KinomeScan (DiscoverX)) EUB0000666a TYK2. The conditions noted are these: at 10 µM.
In assay [7] the target is T2, Tyrosine-protein kinase ZAP-70 (Homo sapiens) (UniProt P43403).
T2 sequence (whole entry): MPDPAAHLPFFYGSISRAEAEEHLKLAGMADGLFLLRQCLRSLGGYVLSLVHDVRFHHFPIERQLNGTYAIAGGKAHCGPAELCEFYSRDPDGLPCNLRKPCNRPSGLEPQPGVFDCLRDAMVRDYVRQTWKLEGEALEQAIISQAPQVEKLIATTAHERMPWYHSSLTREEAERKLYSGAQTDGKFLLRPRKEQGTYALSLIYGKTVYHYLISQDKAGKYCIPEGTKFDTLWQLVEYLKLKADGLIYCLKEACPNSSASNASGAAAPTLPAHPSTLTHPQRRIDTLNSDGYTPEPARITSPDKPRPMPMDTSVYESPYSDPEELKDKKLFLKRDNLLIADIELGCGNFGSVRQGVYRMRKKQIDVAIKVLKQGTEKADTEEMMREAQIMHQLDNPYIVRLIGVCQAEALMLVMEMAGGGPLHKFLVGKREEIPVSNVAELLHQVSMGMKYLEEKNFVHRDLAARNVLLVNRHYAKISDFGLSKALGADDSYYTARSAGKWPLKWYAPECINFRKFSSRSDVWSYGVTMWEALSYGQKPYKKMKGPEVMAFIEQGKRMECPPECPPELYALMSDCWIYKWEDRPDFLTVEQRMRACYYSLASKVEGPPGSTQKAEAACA
The experiment in a line: Selectivity interaction (SelectScreen profiling (Invitrogen)) EUB0000607a ZAP70. Particulars: at 2 µM.

Assay [8] addresses Vascular endothelial growth factor receptor 3 (Homo sapiens, UniProt P35916).
Another assay concerns the target Activated CDC42 kinase 1 (Homo sapiens, UniProt Q07912). The experiment in a line: Selectivity interaction (Kinase panel (Carna Biosciences)) EUB0001542aTs TNK2. The conditions noted are these: at 1 µM.
For assay [9], the target named is Protein polybromo-1 (Homo sapiens) (UniProt Q86U86). The experiment in a line: Selectivity interaction (Human bromodomain panel (DSF assay)) EUB0000233b PBRM1. (DSF heats the sample and reads unfolding from a dye or from intrinsic fluorescence.)
Assay [10] deals with DNA (cytosine-5)-methyltransferase 3A (Homo sapiens) (UniProt Q9Y6K1). The experiment in a line: Selectivity interaction (Methyltransferase screen (radiometric assays, panel of 8 PRMTs, 21 protein lysine methyltransferases, 3 DNA methyltransferases, and one RNA methyltransferase)) EUB0000271b DNMT3A.
The target of assay [11] is T3, Serine/threonine-protein kinase ULK3 (Homo sapiens) (UniProt Q6PHR2).
T3 sequence (whole entry): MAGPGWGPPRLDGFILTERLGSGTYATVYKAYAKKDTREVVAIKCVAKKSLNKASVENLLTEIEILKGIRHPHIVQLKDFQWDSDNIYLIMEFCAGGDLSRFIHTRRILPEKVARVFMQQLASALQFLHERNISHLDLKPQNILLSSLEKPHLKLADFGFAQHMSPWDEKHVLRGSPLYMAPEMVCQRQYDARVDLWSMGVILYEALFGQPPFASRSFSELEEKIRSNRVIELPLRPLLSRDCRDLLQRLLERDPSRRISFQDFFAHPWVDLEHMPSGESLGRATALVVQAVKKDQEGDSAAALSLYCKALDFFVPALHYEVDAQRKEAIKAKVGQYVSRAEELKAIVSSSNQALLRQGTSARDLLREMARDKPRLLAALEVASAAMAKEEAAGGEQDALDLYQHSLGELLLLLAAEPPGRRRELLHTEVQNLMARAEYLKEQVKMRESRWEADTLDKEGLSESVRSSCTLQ
Nature of the assay: Selectivity interaction (KinomeScan (DiscoverX)) EUB0000229b ULK3. The conditions noted are these: at 10 µM.

The target of assay [12] is Cyclin-dependent kinase 1 (Homo sapiens) (UniProt P06493). Nature of the assay: Selectivity interaction (Kinase panel (KiNativ target engagement assay in Jurkat cells)) EUB0001635a CDK1. The conditions noted are these: Selectivity number of off-targets 0.0, Selectivity number of targets 233.0, Source Knowledge https://www.sciencedirect.com/science/article/pii/S2451945619300674?via%3Dihub, at 1 µM. Type of assay: cell-based.

The text below walks through data of ChEMBL document CHEMBL5465560, “Selectivity Literature for EUbOPEN Chemogenomic Library” (2024).

Usually IC50 stands for the concentration at which inhibition is half-maximal.

DNA (cytosine-5)-methyltransferase 3A (Homo sapiens), sequence (Q9Y6K1 whole entry, looked up): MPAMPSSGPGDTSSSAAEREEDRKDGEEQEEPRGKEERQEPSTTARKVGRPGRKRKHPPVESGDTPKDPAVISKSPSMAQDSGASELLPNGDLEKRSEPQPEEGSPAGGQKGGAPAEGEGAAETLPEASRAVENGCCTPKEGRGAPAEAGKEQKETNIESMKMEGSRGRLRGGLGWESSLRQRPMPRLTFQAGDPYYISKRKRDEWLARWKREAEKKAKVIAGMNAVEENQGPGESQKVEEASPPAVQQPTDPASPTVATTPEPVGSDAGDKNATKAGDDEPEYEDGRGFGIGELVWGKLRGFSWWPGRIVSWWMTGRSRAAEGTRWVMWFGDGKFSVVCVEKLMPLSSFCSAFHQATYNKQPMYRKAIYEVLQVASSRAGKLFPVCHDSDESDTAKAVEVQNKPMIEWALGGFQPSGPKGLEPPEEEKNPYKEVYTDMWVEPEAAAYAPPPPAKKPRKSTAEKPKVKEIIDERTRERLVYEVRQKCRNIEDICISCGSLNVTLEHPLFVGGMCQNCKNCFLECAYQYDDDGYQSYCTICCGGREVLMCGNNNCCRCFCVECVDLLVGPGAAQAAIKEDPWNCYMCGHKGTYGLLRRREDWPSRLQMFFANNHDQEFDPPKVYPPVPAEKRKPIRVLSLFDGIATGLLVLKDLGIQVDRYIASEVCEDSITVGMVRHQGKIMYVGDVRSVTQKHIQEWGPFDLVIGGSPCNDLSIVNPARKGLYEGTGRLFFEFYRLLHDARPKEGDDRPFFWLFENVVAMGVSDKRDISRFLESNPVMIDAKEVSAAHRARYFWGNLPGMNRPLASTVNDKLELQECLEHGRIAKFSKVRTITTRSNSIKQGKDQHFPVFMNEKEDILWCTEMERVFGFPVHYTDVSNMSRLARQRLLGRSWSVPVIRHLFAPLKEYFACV
Cyclin-dependent kinase 1 (Homo sapiens), sequence (P06493 whole entry, looked up): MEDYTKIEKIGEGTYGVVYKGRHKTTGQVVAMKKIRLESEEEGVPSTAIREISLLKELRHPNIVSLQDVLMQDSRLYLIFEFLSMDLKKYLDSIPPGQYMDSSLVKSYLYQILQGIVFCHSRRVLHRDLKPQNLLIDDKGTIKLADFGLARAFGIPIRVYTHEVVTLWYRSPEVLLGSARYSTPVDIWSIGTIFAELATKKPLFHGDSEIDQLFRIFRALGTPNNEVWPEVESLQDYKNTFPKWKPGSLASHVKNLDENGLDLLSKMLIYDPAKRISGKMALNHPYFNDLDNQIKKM
Protein polybromo-1 (Homo sapiens), sequence (Q86U86 whole entry): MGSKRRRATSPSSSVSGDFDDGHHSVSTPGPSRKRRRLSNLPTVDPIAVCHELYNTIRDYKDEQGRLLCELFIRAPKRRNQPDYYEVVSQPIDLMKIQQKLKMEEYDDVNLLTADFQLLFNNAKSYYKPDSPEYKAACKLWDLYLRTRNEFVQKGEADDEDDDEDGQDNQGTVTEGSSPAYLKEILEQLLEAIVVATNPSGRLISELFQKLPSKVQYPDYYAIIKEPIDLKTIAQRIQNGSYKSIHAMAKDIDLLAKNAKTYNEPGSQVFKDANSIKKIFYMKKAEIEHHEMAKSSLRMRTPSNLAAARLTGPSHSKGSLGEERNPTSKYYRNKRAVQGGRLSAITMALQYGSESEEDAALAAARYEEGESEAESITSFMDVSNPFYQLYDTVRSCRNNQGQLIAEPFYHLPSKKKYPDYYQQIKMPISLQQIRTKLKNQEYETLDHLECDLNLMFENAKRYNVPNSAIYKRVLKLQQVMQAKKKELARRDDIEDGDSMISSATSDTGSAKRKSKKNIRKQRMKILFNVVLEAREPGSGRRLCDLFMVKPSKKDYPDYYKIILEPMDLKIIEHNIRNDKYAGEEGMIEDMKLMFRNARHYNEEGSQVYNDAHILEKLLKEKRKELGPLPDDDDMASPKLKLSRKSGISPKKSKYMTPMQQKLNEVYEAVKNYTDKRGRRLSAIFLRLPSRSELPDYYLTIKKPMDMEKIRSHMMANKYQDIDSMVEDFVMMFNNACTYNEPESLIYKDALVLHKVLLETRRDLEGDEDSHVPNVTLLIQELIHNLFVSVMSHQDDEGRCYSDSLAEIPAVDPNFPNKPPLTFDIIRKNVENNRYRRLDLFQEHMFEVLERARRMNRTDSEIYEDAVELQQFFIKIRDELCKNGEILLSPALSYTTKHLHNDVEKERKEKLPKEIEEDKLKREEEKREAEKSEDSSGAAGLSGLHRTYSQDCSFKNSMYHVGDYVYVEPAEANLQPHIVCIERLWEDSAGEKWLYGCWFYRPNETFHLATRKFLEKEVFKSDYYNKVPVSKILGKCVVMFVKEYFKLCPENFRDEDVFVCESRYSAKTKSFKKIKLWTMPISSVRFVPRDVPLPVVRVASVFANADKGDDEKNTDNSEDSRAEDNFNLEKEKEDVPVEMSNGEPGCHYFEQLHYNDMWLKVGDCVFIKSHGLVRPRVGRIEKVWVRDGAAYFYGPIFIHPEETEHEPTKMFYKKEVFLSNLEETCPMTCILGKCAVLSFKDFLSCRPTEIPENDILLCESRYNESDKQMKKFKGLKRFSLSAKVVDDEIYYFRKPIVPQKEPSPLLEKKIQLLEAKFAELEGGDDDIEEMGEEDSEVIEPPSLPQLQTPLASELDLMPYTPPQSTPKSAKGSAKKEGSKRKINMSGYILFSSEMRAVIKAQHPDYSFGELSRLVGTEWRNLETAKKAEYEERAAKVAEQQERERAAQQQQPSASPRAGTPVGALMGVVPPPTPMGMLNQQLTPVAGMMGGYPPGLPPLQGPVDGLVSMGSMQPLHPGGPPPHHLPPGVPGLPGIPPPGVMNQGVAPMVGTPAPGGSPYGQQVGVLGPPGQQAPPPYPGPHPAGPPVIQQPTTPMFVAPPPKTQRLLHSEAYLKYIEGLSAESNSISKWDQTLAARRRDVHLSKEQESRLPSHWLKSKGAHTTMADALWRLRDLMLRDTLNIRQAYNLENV
Activated CDC42 kinase 1, sequence (Q07912 whole entry, looked up): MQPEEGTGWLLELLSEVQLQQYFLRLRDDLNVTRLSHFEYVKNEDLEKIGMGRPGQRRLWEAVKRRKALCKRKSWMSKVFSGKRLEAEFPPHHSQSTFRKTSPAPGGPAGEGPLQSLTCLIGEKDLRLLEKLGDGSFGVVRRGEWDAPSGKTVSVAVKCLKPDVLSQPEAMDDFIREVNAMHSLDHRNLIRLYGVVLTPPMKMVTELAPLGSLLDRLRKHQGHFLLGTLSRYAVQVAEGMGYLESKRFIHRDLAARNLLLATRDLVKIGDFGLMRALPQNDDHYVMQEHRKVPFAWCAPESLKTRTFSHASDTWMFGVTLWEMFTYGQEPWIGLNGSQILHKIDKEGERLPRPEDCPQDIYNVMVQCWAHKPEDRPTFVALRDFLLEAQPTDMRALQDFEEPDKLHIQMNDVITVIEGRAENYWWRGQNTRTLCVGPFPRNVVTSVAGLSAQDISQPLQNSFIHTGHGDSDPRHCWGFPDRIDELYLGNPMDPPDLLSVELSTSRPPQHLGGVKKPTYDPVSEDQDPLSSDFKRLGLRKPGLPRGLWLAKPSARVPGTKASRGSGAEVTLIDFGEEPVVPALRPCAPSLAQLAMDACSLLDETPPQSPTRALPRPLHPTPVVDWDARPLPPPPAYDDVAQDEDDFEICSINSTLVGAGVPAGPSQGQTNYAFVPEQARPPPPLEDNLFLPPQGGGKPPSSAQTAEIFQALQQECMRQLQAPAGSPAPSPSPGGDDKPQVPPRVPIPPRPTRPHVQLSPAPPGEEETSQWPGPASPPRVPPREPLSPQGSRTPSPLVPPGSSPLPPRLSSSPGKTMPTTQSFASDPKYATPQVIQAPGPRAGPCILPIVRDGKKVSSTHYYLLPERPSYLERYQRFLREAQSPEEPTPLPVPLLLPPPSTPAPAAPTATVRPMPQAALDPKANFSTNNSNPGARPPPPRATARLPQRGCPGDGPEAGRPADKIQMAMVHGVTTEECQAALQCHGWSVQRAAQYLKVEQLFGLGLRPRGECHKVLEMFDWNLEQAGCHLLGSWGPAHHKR
Non-receptor tyrosine-protein kinase TYK2, sequence (P29597 whole entry): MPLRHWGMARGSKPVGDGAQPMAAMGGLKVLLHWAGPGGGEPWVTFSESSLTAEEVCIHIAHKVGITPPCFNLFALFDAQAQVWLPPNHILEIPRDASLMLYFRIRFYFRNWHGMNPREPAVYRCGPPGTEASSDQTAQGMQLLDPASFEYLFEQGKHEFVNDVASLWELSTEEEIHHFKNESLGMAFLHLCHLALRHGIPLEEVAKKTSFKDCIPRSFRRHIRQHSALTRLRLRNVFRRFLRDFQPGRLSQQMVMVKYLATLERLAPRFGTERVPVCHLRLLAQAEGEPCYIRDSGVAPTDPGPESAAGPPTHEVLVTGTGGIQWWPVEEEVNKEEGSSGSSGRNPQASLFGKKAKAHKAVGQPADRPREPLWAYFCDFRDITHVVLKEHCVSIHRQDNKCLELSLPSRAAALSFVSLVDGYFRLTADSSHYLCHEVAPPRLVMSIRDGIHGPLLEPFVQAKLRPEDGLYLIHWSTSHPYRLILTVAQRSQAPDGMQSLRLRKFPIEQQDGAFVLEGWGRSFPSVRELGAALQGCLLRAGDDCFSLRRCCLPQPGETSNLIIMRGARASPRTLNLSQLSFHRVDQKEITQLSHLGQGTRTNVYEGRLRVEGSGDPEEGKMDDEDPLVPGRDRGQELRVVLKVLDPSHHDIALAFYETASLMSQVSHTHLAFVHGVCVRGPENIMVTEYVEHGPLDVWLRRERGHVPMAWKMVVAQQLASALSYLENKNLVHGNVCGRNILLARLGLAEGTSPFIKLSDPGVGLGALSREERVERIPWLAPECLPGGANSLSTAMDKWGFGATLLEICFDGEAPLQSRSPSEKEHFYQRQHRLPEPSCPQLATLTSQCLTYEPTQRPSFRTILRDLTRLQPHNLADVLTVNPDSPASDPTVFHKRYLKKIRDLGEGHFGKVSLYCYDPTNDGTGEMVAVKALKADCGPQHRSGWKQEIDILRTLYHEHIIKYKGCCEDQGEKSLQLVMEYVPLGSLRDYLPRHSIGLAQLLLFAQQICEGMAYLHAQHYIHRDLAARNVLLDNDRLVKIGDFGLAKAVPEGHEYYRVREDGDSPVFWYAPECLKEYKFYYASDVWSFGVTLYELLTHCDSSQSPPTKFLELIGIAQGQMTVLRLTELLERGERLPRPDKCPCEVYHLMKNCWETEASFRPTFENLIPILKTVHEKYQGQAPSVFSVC

`Cn1cc(-n2cnc3c(NCc4nc5cc(Cl)c(Cl)cc5[nH]4)nc(N4CCOCC4)nc32)cn1`: the % of control in [1] was 2.09%; on Focal adhesion kinase 1 it was 5.39%.
Turning to `COCC(=O)NC/C=C/c1ccc2ncnc(Nc3ccc(Oc4ccc(C)nc4)c(C)c3)c2c1` [CP-724714], the % of control in [2] was 100%.
Regarding `N#Cc1cccc(-c2c[nH]c3ncnc(N4CCOCC4)c23)c1`, the % of control in [3] is 100%; in [4], 64%.
In turn, `CCN(CC)CCCCNc1ncc2cc(-c3cc(OC)cc(OC)c3)c(NC(=O)NC(C)(C)C)nc2n1` showed a % of control in assay [5] of 100%.
With `O=C(NOC[C@H](O)CO)c1ccc(F)c(F)c1Nc1ccc(I)cc1F`, the % of control in [6] was found to be 100%.
Regarding `CNC(=O)Nc1ccc(-c2nc(N3CC4CCC(C3)O4)c3cnn(C4CCC5(CC4)OCCO5)c3n2)cc1`, the % of inhibition in assay [7] came out at 7%.
In the case of `CCc1cccc(CC)c1NC(=O)c1nn(C)c2c1CCc1cnc(Nc3ccc(C(=O)NC4CCN(C)CC4)cc3OC(F)(F)F)nc1-2`, in [8], the IC50 was over 10 µM.
With `Cn1cc(Nc2nccc(N3CC4CCC(C3)N4C(=O)[C@@H]3CC3(F)F)n2)cn1`, the % of inhibition on Activated CDC42 kinase 1 came to 82%.
With `CN(C)CCCOc1ccc(-c2cc(NCCCn3cccn3)nc(S(C)(=O)=O)n2)cc1`, the dTM in assay [9] is under 2 K.
As to `Cc1cc(C)cc([C@@H]2c3cc(C)ccc3NC(=O)CN2C(=O)c2ccc(Br)s2)c1`, the % of activity in assay [10] (at 1 µM) and in assay [10] (at 10 µM) was 99% in each case.
`COc1cc(N(C)c2ccnc3ccc(C(F)(F)F)cc23)cc(OC)c1OC` gave a % binding in [11] of 75%.
On to `C=CC(=O)Nc1ccc(C(=O)Nc2[nH]nc3c2CN(C(=O)N[C@H](CN(C)C)c2ccccc2)C3(C)C)cc1`, for which the % of engagement in assay [12] is -3.1%.
